Experimental data from patent US20220226280A1, “COMPOSITIONS AND METHODS FOR INCREASED GLUCOSE UPTAKE AND FAT METABOLISM” (Board of Supervisors of Louisiana State University and …, priority 2017, published 2022).
Like-named read-outs stand apart in the source and are kept apart here.

Tests used:
[1] = cited from earlier work
GLUT4 mRNA = GLUT4 mRNA induction in differentiated human adipocytes (Taqman RT-PCR); type: cell-based; conditions: human subcutaneous adipocyte cultures
Procedure: (§1) Gene expression was analyzed using Taqman RT-PCR and values are expressed as fold increase over untreated controls (n=5).
Gene expression was analyzed using Taqman RT-PCR and values are expressed as fold increase over untreated controls. Naringenin and Menthol v. Control: p=0.008, Naringenin and Menthol v. Naringenin: p=0.01. Naringenin and Menthol v. Menthol: p<0.001, Naringenin v. Control: p>0.05, Menthol v. Control: p>0.05.
(§2) UCP1 mRNA levels increased 4-8 fold in human subcutaneous adipocytes treated from 4-7 days with Naringenin at a concentration of 10 μM, the Cmax detected in human plasma after intake of citrus beverages (FIG. 1) (Kanaze, F. I., et al., Eur J Clin Nutr, 2007 61(4):472-7).

TRPM8 receptor = TRPM8 receptor expression in human adipocytes; type: cell-based; conditions: 10 μM Naringenin alone
HEK293 cells = conditions: cited from earlier work
Pgc-1α = Pgc-1α expression in human subcutaneous adipocytes; type: cell-based; conditions: Naringenin 10 μM
Procedure: as §1, §2

UCP1 mRNA = UCP1 mRNA induction in differentiated human adipocytes (Taqman RT-PCR); type: cell-based; conditions: for UCP1 expression in comparison with flavonoid alone: flavonoid 5 μM combined with 20 μM menthol, 7 day treatment
Procedure: as §1
Gene expression was analyzed using Taqman RT-PCR and values are expressed as fold increase over untreated controls.
To determine the lowest concentrations with efficacy to induce UCP1 mRNA in human adipocytes over a 7 day time period, cells were treated with multiple concentrations of menthol combined with naringenin at 5 μM (FIG. 6).

[2] = cited from earlier work; remark: listed apart in the source
[3] = tested on: carnitine palmitoyltransferase 1 (CPT-1); experiment: CPT-1 induction in human subcutaneous adipocyte cultures; type: cell-based
Procedure: as §1, §2

TRPM8 = TRPM8 (Homo sapiens, UniProt Q7Z2W7); conditions: cited from earlier work
Sequence of TRPM8 (Q7Z2W7 whole entry, species assumed): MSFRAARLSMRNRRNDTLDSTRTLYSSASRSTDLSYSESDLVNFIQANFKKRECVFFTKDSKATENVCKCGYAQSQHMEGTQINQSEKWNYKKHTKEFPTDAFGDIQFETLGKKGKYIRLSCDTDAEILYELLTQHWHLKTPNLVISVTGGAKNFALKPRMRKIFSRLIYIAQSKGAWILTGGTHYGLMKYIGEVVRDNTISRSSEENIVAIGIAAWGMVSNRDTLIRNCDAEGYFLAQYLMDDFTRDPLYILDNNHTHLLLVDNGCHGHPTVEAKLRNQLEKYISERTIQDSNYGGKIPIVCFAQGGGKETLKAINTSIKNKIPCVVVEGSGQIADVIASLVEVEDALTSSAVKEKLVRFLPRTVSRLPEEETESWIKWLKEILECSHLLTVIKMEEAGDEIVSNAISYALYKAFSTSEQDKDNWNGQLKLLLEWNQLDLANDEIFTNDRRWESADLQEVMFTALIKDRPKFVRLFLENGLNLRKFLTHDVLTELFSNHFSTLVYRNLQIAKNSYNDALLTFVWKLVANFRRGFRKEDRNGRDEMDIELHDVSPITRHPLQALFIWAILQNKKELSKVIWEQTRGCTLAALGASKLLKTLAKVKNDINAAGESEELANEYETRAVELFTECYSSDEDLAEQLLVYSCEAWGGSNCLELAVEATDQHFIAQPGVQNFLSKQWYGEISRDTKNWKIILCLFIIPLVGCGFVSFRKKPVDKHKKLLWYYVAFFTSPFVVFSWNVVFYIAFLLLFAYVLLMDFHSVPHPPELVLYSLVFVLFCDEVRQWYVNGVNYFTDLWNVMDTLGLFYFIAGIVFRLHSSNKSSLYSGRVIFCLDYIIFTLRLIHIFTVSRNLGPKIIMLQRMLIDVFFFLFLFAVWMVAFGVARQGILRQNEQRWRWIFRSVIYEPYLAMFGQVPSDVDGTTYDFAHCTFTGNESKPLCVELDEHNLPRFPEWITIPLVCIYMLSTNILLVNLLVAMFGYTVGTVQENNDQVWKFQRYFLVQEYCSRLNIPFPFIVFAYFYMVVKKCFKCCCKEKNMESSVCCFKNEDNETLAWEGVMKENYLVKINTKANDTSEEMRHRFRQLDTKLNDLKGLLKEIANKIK

UCP1 expression [4] = conditions: cited from earlier work
Ucp1 expression [5] = conditions: brown adipocytes from mice; cited from earlier work

In the case of `O=C1C[C@@H](c2ccc(O)cc2)Oc2cc(O)cc(O)c21` (stereo in doubt) [Naringenin, 2,3-dihydro-5,7-dihydroxy-2-(4-hydroxyphenyl)-4H-1-benzopyran-4-one], the solubility ([1]; aqueous solutions) is given as “sparingly soluble”, the solubility ([1]; ethanol, ether, oils (e.g., olive oil or citrus oil) and supercritical carbon dioxide) is given as “soluble” and the “induction of brown adipocyte marker GLUT4” value (GLUT4 mRNA) is given as “significantly induces”. The “increase in TRPM8 receptor expression” value (TRPM8 receptor) was 4 fold, the “toxicity to cells (maximum concentration)” value (HEK293 cells) was 12.5 µM and the “increase in transcriptional activator Pgc-1α” value (Pgc-1α) was “No increases were observed”. The “UCP1 mRNA levels increased” value (UCP1 mRNA; Naringenin 10 μM, 4-7 days, human subcutaneous adipocytes) was 4-8 fold, the “induction of brown adipocyte marker UCP1” value (UCP1 mRNA; human subcutaneous adipocyte cultures) was “significantly induces” and the Cmax ([2]; human plasma/serum after intake of citrus beverages, read-out: Cmax) was 10 µM. The “induction of brown adipocyte marker CPT-1” value [3] was “significantly induces”.
With `CC12CCC(CC1)C(C)(C)O2` [Eucalyptol] the “UCP1 mRNA expression versus naringenin alone” value (UCP1 mRNA; eucalyptol at 100 μM and 200 μM in combination with Naringenin 5 μM, 7 d) was “did not increase UCP1 mRNA expression above the level observed with naringenin alone”.
In the case of `COc1ccc([C@@H]2CC(=O)c3c(O)cc(O)cc3O2)cc1O` [Hesperetin], the “UCP1 expression in comparison with flavonoid alone” value (shortened to “UCP1 expression in comparison”) (UCP1 mRNA) is reported as “No statistical difference”.
For `O=C1NC(c2cccc([N+](=O)[O-])c2)=CCN1c1ccccc1O` [Icilin], the EC50 (TRPM8; TRPM8 activator) is listed as roughly 500 nM, the “potency relative to menthol” value (TRPM8) is listed as “at least 100 fold” and the “synergy for UCP1 mRNA induction” value (UCP1 mRNA; 0.5 μM icilin combined with Naringenin 5 μM, 7 d) is listed as “did not display synergy”.
In the case of `CC1CCC(C(C)C)C(O)C1` (stereo not drawn) [Menthol], the “increase in UCP1 expression” value (UCP1 expression [4]; Menthol 100 μM overnight) is given as 1.5 fold, the “increase in UCP1 expression” value (UCP1 expression [4]; Menthol 100 μM, cells exposed to 26° C.) is given as 40 fold and the Ucp1 expression (Ucp1 expression [5]) is given as “concentration-dependent increase”. The “induction of UCP1 or other beige markers” value (UCP1 mRNA; Menthol alone, human adipocyte cultures) was “No induction”, the Cmax ([2]; menthol, read-out: Cmax) was 20 µM and the Cmax ([2]; menthol, read-out: high end of serum Cmax) was 30 µM.
For `COc1cc(CN(CCN)C(=O)OC(C)c2ccccc2)ccc1OCc1ccccc1` (stereo not drawn) [PBMC], the “Naringenin-stimulated UCP1 expression in presence of inhibitor” value (UCP1 mRNA; inhibitor during 5 μM Naringenin treatment for 3 days) was “prevented Naringenin-stimulated UCP1 expression”.
For `O=c1cc(-c2ccc(O)cc2)oc2cc(O)cc(O)c12` [apigenin], the “UCP1 expression in comparison” value (UCP1 mRNA) was “No statistical difference”.
For `O=c1c(O)c(-c2ccc(O)c(O)c2)oc2cc(O)cc(O)c12` [quercetin], the “UCP1 expression in comparison” value (UCP1 mRNA) was “No statistical difference”.
